For experiment [1], the system named is HIT-T15 cells. Nature of the experiment: HIT-T15 cell proliferation, BrdU incorporation. The class given is cell-based. To be noted: for effect on unacylated ghrelin-induced cell proliferation: preincubation, unacylated ghrelin 100 nM, NF449 10 μM, PTX 50 ng/ml. As to the method: This effect was similar to that observed in cells cultured in normal conditions, i.e. in the presence of serum (15% HS, 2.5% FBS).
To investigate the signaling pathways involved in ghrelin mitogenic effect, the cells were preincubated (30 min) with NF449, a selective Gαs protein-coupled receptor antagonist.
In FIG. 8A to 8E, HIT-T15 cells were cultured in serum-free medium (Control) for 24 h, UAG alone or with NF449 and pertussis toxin (PTX) were added to the incubation medium for further 24 h. In FIG. 8A, cell proliferation was measured by BrdU uptake in cells cultured in the presence or absence of serum, UAG at the concentrations indicated. […] Data are expressed as the percentage relative to control and are the means±SEM of eight replicates within a single representative experiment that was repeated at least 3 times (*P<0.05,**P<0.01).
(§1) In FIG. 9B, apoptosis is evaluated by counting condensed/fragmented Hoechst-stained nuclei (SF, serum-free medium). Values are expressed as percent of apoptotic cells and are the mean±SEM of duplicate determinations (500 cells each) of three independent experiments (*P<0.05; **P<0.01). In FIG. 9C, cell proliferation is assessed by BrdU uptake (ELISA). The results are expressed as percent of control (serum starved cells) and are the mean±SEM of three independent experiments (*P<0.05,**P<0.01). FIG. 9D illustrates ghrelin secretion in HIT-T15 conditioned medium following exposure to either serum, SF±cytokines. The results are the mean±SEM of three independent experiments, each performed in quadruplicate (*P<0.05). In FIG. 9E, apoptosis is determined by Hoechst 33258 of cells cultured for 48 h in the presence of serum or in SF medium alone with addition of an anti-ghrelin antibody (α-ghrelin Ab), (*P<0.05,**P<0.01 vs 0 μg/ml α-ghrelin Ab in each condition).
(Uptake of a labelled nucleoside into DNA is a usual measure of proliferation.)

In another experiment the test system is HIT-T15 cell membranes. The experiment is described as follows: 125I-[Tyr4]-unacylated ghrelin binding to HIT-T15 cell membranes. To be noted: unlabeled competitor. An excerpt:
Binding is expressed as percentage of control (specific binding in the absence of unlabeled competitor);

Experiment [2] can be described thus: preprandial GHS administration in normal human beings with GH receptor antagonist pegvisomant. The class given is in vivo. To be noted: 1 μg/Kg i.v. preprandial. The source says:
Because in this study GH-action was blocked by pegvisomant, these GHS-mediated metabolic changes on the “gastro-entero-hepatic axis” must be direct and non-pituitary mediated.

The nature of experiment [3]: ghrelin and GH rhythms during three days fasting, GHRP-6 bolus, healthy volunteers. To be noted: 1 μg/kg on the 3rd day of fasting. The experiment is classed as in vivo, human. On the procedure:
In order to understand the diurnal rhythms of ghrelin and GH secretion during fasting, a study was conducted on 10 healthy human volunteers with normal body mass index. […] Fasting rapidly induces a diurnal ghrelin rhythm that is followed by a similar GH rhythm. […] This phenomenon cannot be explained by changes in insulin, glucose or free fatty acid levels. Thus it appears that the metabolic effects of ghrelin are distinct from its effects on GH secretion.
By the use of the GH receptor antagonist pegvisomant, indirect evidence was provided that these changes in serum ghrelin levels are not regulated by the GH receptor. Finally, it was shown that administration of the synthetic GHS, GHRP-6, produced a decrease in peak ghrelin levels, but this effect was only observed after several hours, indicating the existence of a long-loop feedback system of GHS's on ghrelin secretion.

A short description of experiment [4]: co-administration of unacylated ghrelin and ghrelin in normal human volunteers. The class given is in vivo. To be noted: 1 μg/kg iv at 0 min with ghrelin 1 μg/kg iv. An excerpt: Thus it appears that unacylated ghrelin is acting as a functional antagonist of the peripheral actions of ghrelin.
A short description of experiment [5]: 16 h intravenous infusion of unacylated ghrelin in healthy males. To be noted: 1.0 μg/Kg/h iv 16 h. The class given is in vivo, human.
For experiment [6], the system named is HIT-T15 cells. The experiment is described as follows: HIT-T15 cell survival, MTT assay. The class given is cell-based. To be noted: serum-free conditions and in the presence of cytokines.
Experiment [7] relates to HIT-T15 cells. The experiment is described as follows: HIT-T15 apoptosis, Hoechst 33258 staining. The class given is cell-based.
From the text: Apoptosis is the main form of pancreatic β-cell death in animal models of type 1 diabetes mellitus. […] Moreover, they partially lost their capacity to form islet-like structures (FIG. 9A, upper panel, and 9B). Cytokines further increased apoptosis (˜27%), cells appearing smaller and unable to form islets (FIG. 9A, lower panel, and FIG. 9B). […] Accordingly, others have reported that ghrelin exerts proliferative and antiapoptotic effects at high concentrations […] in different cell types.
as §1

Another experiment concerns caspase-3. The experiment is described as follows: caspase-3 activation in HIT-T15 cells. The class given is cell-based. The conditions noted are these: serum-starved and cytokine-treated cells, data not shown.
The test system of the next experiment is cAMP. Nature of the experiment: intracellular cAMP concentration in HIT-T15 cells. The experiment is classed as cell-based. The conditions noted are these: 100 nM, with IBMX. As to the method: Initially, the unacylated ghrelin-induced cAMP intracellular variation was examined.
cAMP induction by ghrelin was then evaluated at 15 min in either serum-free medium alone or with addition of IFN-γ/TNF-α in the presence of IBMX.
The results are the mean±SEM of three independent experiments performed in triplicate (*P<0.05 vs basal time point). FIG. 10B illustrates the cAMP levels in cells incubated in the presence of serum or in serum-free (SF) medium±unacylated ghrlein (100 nM each) alone or with IFN-γ/TNF-α combination (100 ng/ml and 200 ng/ml respectively). Data are the mean±SEM of at least three independent experiments performed in triplicate (*P<0.05).

Experiment [8] can be described thus: glucose and insulin after single intravenous human ghrelin in healthy young male volunteers. To be noted: 1.0 μg/kg i.v. at 0', vs placebo. The class given is in vivo.

Non-standard residues stand in square brackets, D forms with d. Residues, ends and D or L forms follow the SMILES beside them. No end group written: not given here. *: point of attachment. dTrp(2-Me) = Cc1[nH]c2ccccc2c1C[C@@H](N)C(=O)O; Octanoyl = CCCCCCCC(=O)*

As to `O=C(Nc1cc(C(=O)Nc2ccc(S(=O)(=O)O)cc2S(=O)(=O)O)cc(C(=O)Nc2ccc(S(=O)(=O)O)cc2S(=O)(=O)O)c1)Nc1cc(C(=O)Nc2ccc(S(=O)(=O)O)cc2S(=O)(=O)O)cc(C(=O)Nc2ccc(S(=O)(=O)O)cc2S(=O)(=O)O)c1` [NF449, reference compound], the “effect on unacylated ghrelin-induced cell proliferation” value in the experiment on HIT-T15 cells [1] was “complete blockade”.

As for `Cc1[nH]c2ccccc2c1C[C@@H](NC(=O)[C@@H](N)Cc1cnc[nH]1)C(=O)N[C@@H](C)C(=O)N[C@@H](Cc1c[nH]c2ccccc12)C(=O)N[C@H](Cc1ccccc1)C(=O)N[C@@H](CCCCN)C(N)=O` [hexarelin] (H-H[dTrp(2-Me)]AW[dF]K-NH2), the “competition with 125I-labeled [Tyr4]-unacylated ghrelin for binding sites” value with HIT-T15 cell membranes is “competed”.

As for GHRP-6, the serum insulin concentrations entry in [2] (in the presence of pegvisomant) is recorded as “impressive increase in serum insulin concentrations”. Moreover, the “postprandial serum glucose levels” value in experiment [2] (only in the presence of pegvisomant) is “induces a postprandial increase in serum glucose levels”. In addition, the peak ghrelin levels entry in experiment [3] was “attenuated peak ghrelin levels in the afternoon”.

Consider “NH2Gly-Ser-Ser-Phe-Leu-Ser-Pro-Glu-His-Gln-Arg-Val-Gln-Gln-Arg-Lys-Glu-Ser-Lys-Lys-Pro-Pro-Ala-Lys-Leu-Gln-Pro-Arg (H-GSSFLSPEHQRVQQRKESKKPPAKLQPR) [unacylated ghrelin]”, for which, in experiment [4], the “ghrelin-induced decrease in insulin levels” value is given as “totally prevented” and the “ghrelin-induced increase in glucose” value was “totally prevented”. Moreover, the FFA profile result in experiment [5] (post-prandially and at fasting) was “reduced both post-prandially (p<0.01) and at fasting”. Besides, in experiment [5] (vs saline), the glucagon profile entry is “significantly modified the profile of all parameters, except glucagon” and the “total insulin AUC” value was “did not modify”. In addition, in experiment [5] (vs saline, p<0.01), the “GH AUC” value is on record as “lower”, the “cortisol AUC” value is “lower”, the “free fatty acid (FFA) AUC” value is “decreased” and the “glucose AUC” value was “decreased”. The “early insulin response to dinner and breakfast” value in experiment [5] (dinner p<0.01, breakfast p<0.05) is given as “enhanced”. Also, in the experiment with HIT-T15 cell membranes, the “competition with 125I-labeled [Tyr4]-unacylated ghrelin for binding sites” value was “competed”. Besides, the “cell proliferation in the presence of IFN-γ/TNF-α” value with HIT-T15 cells [1] (100 nM, cytokines 100 ng/ml and 200 ng/ml, 24 h) is “dramatically restored cell proliferation”. Moreover, in the experiment with HIT-T15 cells [1] (serum-free medium, 1 pm to 1 μm, 24 h), the “cell proliferation (BrdU incorporation)” value is “significantly and dose-dependently induced cell proliferation”. Moreover, the “cell viability (MTT)” value in the experiment with HIT-T15 cells [6] is given as “significantly increased cell viability”. For the same molecule, the serum-starvation-induced apoptosis result in the experiment on HIT-T15 cells [7] (100 nm, serum-deprived medium) is reported as “almost completely prevented”. Also, in the experiment on HIT-T15 cells [7] (100 nm, cytokines alone ~27%), the “apoptosis triggered by the IFN-γ/TNF-α combination, percent of apoptotic cells” value was roughly 12%. Moreover, the “lowest significantly active concentration, antiapoptotic effect” value in the experiment with HIT-T15 cells [7] (data not shown) was determined as 1 nm. Besides, the caspase-3 activation entry in the experiment with caspase-3 is on record as “significantly reduced”. For the same molecule, in the experiment on cAMP (serum starved cells, 5 to 60 min), the “cAMP levels over time” value is “transient increase within 5 min”. For the same molecule, the “cAMP at 15 min” value with cAMP (serum-free medium alone or with IFN-γ/TNF-α) was “significantly up-regulated cAMP”.

Take “ghrelin: gastric hormone of 28 amino acids with an n-octanoyl ester at its third serine residue (GSS(Octanoyl)FLSPEHQRVQQRKESKKPPAKLQPR)”: in [8], the Δ glucose result is “elevation in glucose” and the Δ insulin entry was “acute decrease in insulin”.

For pertussis toxin [reference compound], in the experiment on HIT-T15 cells [1], the “effect on unacylated ghrelin-induced cell proliferation” value is reported as “had no effect”.

The values are drawn from patent publication US8071368B2, “Methods for promoting growth and survival of insulin-secreting cells” (Alizé Pharma SAS, priority 2001, dated 2011).
